Measured values: patent publication US10344026B2, “Compositions and methods of targeting mutant K-ras” (NANTBIO, INC., priority 2017, dated 2019)

What was measured:
Assay type in all cases: cell-based
wild type K-Ras = target: T1, wild type K-Ras (Homo sapiens, UniProt P01116); assay: G-LISA Ras activation, 293H cells transfected with Ras wild-type, EGF stimulated; conditions: compound 1 hour, then 100 ng/ml EGF 2 minutes
T1 construct: expressed in transfected cells; host or cells: 293H cells
Procedure, shortened: (§1)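 G-LISA Ras-GTP readout; 293H transfectants treated 1 h with 3.125-25 μM compound, EGF pulse (100 ng/ml, 2 min) for wild-type only.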

K-Ras G12D = target: T2, K-Ras G12D (Homo sapiens, UniProt P01116, G12D); assay: G-LISA Ras activation, 293H cells transfected with G12D mutant; conditions: compound 1 hour
T2 construct: expressed in transfected cells; host or cells: 293H cells
Procedure, shortened: as §1

[1] = tested on: Ishikawa (K-Ras wild type cell line); assay: Viability assay (CellTiterBlue, 72 hr) Ishikawa; conditions: Homo sapiens, GI50, CellTiterBlue, Ishikawa K-Ras wild-type
Procedure, shortened: (§2)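 1000 cells/well, 18 hr pre-incubation at 37 °C; compound added from DMSO stock, 0.5% DMSO final; 72 hr; CellTiterBlue 3 hr, fluorescence Ex550/Em590; GI50 normalized to DMSO = 100%, 100 uM tamoxifen = 0% viability.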

[2] = tested on: U87-MG (K-Ras wild type cell line); assay: Viability assay (CellTiterBlue, 72 hr) U87-MG; conditions: Homo sapiens, U-87 MG, GI50, CellTiterBlue, U87-MG K-Ras wild-type
Procedure, shortened: as §2

[3] = tested on: HCC827 (K-Ras wild type cell line); assay: Viability assay (CellTiterBlue, 72 hr) HCC827; conditions: Homo sapiens, GI50, CellTiterBlue, HCC827 K-Ras wild-type
Procedure, shortened: as §2

[4] = tested on: A375 (K-Ras wild type cell line); assay: Viability assay (CellTiterBlue, 72 hr) A375; conditions: Homo sapiens, A-375, GI50, CellTiterBlue
Procedure, shortened: as §2

Panc1-G12D = assay: Viability assay (CellTiterBlue, 72 hr) Panc1; conditions: Homo sapiens, PANC-1, GI50, CellTiterBlue, Panc1 K-Ras G12D, read-out: 72 hr Cell Viability Panc1 (G12D)
Procedure, shortened: as §2

Panc10.05-G12D = assay: Viability assay (CellTiterBlue, 72 hr) Panc10.05; conditions: Homo sapiens, Panc1005, GI50, CellTiterBlue, Panc10.05 K-Ras G12D, read-out: 72 hr Cell Viability Panc10.05 (G12D)
Procedure, shortened: as §2

HCT116-G31D = assay: Viability assay (CellTiterBlue, 72 hr) HCT116; conditions: Homo sapiens, HCT-116, GI50, CellTiterBlue, HCT116 K-Ras G13D, read-out: 72 hr Cell Viability HCT116 (G13D)
Procedure, shortened: as §2

[5] = tested on: phospho-ERK in HCC827 (Wild-type); assay: In-Cell Western phospho-ERK, HCC827; conditions: Homo sapiens, 1 h; HCC827, one hour treatment; read-out: In-Cell Western HCC827 (Wild-type) Erk (P)
Procedure, shortened: (§3)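 EC50 values come from immunofluorescence quantitation of phosphorylated ERK or Akt in fixed cells exposed to compound for one hour at 0.5% DMSO. Maximal inhibition is defined by 1 uM BEZ235 for Akt and 1 uM MEK Inhibitor II for ERK.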

[6] = tested on: phospho-Akt in HCC827 (Wild-type); assay: In-Cell Western phospho-Akt, HCC827; conditions: Homo sapiens, 1 h; HCC827, one hour treatment; read-out: In-Cell Western HCC827 (Wild-type) Akt (P)
Procedure, shortened: as §3

[7] = tested on: phospho-ERK in A375 (Wild-type); assay: In-Cell Western phospho-ERK, A375; conditions: Homo sapiens, A-375, 1 h; A375, one hour treatment; read-out: In-Cell Western A375 (Wild-type) Erk (P)
Procedure, shortened: as §3

[8] = tested on: phospho-Akt in A375 (Wild-type); assay: In-Cell Western phospho-Akt, A375; conditions: Homo sapiens, A-375, 1 h; A375, one hour treatment; read-out: In-Cell Western A375 (Wild-type) Akt (P)
Procedure, shortened: as §3

[9] = tested on: phospho-ERK in Panc1 (G12D); assay: In-Cell Western phospho-ERK, Panc1; conditions: Homo sapiens, PANC-1, 1 h; Panc1, one hour treatment; read-out: In-Cell Western Panc1 (G12D) Erk (P)
Procedure, shortened: as §3

[10] = tested on: phospho-Akt in Panc1 (G12D); assay: In-Cell Western phospho-Akt, Panc1; conditions: Homo sapiens, PANC-1, 1 h; Panc1, one hour treatment; read-out: In-Cell Western Panc1 (G12D) Akt (P)
Procedure, shortened: as §3

[11] = tested on: phospho-ERK in Panc10.05 (G12D); assay: In-Cell Western phospho-ERK, Panc10.05; conditions: Homo sapiens, Panc1005, 1 h; Panc10.05, one hour treatment; read-out: In-Cell Western Panc10.05 (G12D) Erk (P)
Procedure, shortened: as §3

[12] = tested on: phospho-Akt in Panc10.05 (G12D); assay: In-Cell Western phospho-Akt, Panc10.05; conditions: Homo sapiens, Panc1005, 1 h; Panc10.05, one hour treatment; read-out: In-Cell Western Panc10.05 (G12D) Akt (P)
Procedure, shortened: as §3

T1 sequence (P01116 whole entry): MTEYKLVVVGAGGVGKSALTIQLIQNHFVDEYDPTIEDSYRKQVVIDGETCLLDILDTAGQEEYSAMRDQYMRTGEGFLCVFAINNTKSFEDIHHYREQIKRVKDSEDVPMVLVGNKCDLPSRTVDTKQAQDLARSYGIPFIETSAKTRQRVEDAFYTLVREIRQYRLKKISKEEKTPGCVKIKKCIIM
T2 sequence (P01116 whole entry G12D): as the sequence (P01116 whole entry) above, with G12D counted along it

SMILES	IC50 (wild type K-Ras) [µM]	IC50 (K-Ras G12D) [µM]	IC50 [1] [µM]	IC50 [2] [µM]	IC50 [3] [µM]	IC50 [4] [µM]	IC50 (Panc1-G12D) [µM]	IC50 (Panc10.05-G12D) [nM]	IC50 (HCT116-G31D) [µM]	EC50 [5] [µM]	EC50 [6] [µM]	EC50 [7] [µM]	EC50 [8] [µM]	EC50 [9] [µM]	EC50 [10] [µM]	EC50 [11] [nM]	EC50 [12] [µM]
CCc1nc(C)c(C(=O)Nc2nc(-c3ccc4c(c3)CCC(=O)N4CCOC)cs2)o1 [Compound 110, 2-ethyl-N-(4-(1-(2-methoxyethyl)-2-oxo-1,2,3,4-tetrahydroquinolin-6-yl)thiazol-2-yl)-4-methyloxazole-5-carboxamide]	6.8	3.9	10	17	4	> 25	4	778	> 25	4	> 25	23	> 25	3	23	1300	3
COCCN1C(=O)CCc2cc(-c3csc(NC(=O)c4c(C)nn(C)c4C)n3)ccc21 [Compound 120, N-(4-(1-(2-methoxyethyl)-2-oxo-1,2,3,4-tetrahydroquinoinolin-6-yl)thiazol-2-yl)-1,3,5-trimethyl-1H-pyrazole-4-carboxamide]	11.9	3.4	10	13	4	20	4	802	> 25	3	> 25	24	> 25	5	26	1200	5
Cc1nn(C(C)C)c(C)c1C(=O)Nc1nc(-c2ccc3c(c2)CCC(=O)N3Cc2cccnc2)cs1 [Compound 117, 1-isopropyl-3,5-dimethyl-N-(4-(2-oxo-1-(pyridin-3-ylmethyl)-1,2,3,4-tetrahydroquinolin-6-yl)thiazol-2-yl)-1H-pyrazole-4-carboxamide]	6.7	2.6	5	> 25	4	14	3	1400	> 25	4	> 25	15	> 25	4	23	914	3
CCn1nc(C)c(C(=O)Nc2nc(-c3ccc4c(c3)CCC(=O)N4CCOC)cs2)c1C [Compound 119, 1-ethyl-N-(4-(1-(2-methoxyethyl)-2-oxo-1,2,3,4-tetrahydroquinolin-6-yl)thiazol-2-yl)-3,5-dimethyl-1H-pyrazole-4-carboxamide]	5.4	2.6	3	6	2	8	2	710	16	1.1	> 25	8	12	3	19	759	1.5
Cc1nc(C2CC2)oc1C(=O)Nc1nc(-c2ccc3c(c2)CCC(=O)N3Cc2cccnc2)cs1 [Compound 72, 2-cyclopropyl-4-methyl-N-(4-(2-oxo-1-(pyridin-3-ylmethyl)-1,2,3,4-tetrahydroquinolin-6-yl)thiazol-2-yl)oxazole-5-carboxamide]	8	8	2	–	> 25	–	13	2000	> 25	14	19	–	–	3	2	5000	19
Cc1nc(C)c(C(=O)Nc2nc(-c3ccc4c(c3)CCC(=O)N4CCn3cncn3)cs2)o1 [Compound 108, N-(4-(1-(2-(1H-1,2,4-triazol-1-yl)ethyl)-2-oxo-1,2,3,4-tetrahydroquinolin-6-yl)thiazol-2-yl)-2,4-dimethyloxazole-5-carboxamide]	–	> 25	> 25	> 25	> 25	> 25	> 25	> 25000	> 25	> 25	> 25	> 25	> 25	> 25	> 25	21000	> 25
Cc1nc(C)c(C(=O)Nc2nc(-c3ccc4c(c3)CCC(=O)N4Cc3nnn[nH]3)cs2)o1 [Compound 109, N-(4-(1-((1H-tetrazol-5-yl)methyl)-2-oxo-1,2,3,4-tetrahydroquinolin-6-yl)thiazol-2-yl)-2,4-dimethyloxazole-5-carboxamide]	–	–	> 25	> 25	> 25	> 25	> 25	> 25000	> 25	> 25	> 25	> 25	> 25	> 25	> 25	> 25000	> 25
Cc1nc(C)c(C(=O)Nc2nc(-c3ccc4c(c3)CCC(=O)N4CC3CC3)cs2)o1 [Compound 68, N-(4-(1-(cyclopropylmethyl)-2-oxo-1,2,3,4-tetrahydroquinolin-6-yl)thiazol-2-yl)-2,4-dimethyloxazole-5-carboxamide]	16.7	10.3	3	–	5	–	8	3000	5	6	13	–	–	5	4	7000	23
COCCN1C(=O)CCc2cc(-c3csc(NC(=O)c4c(C)nn(C(C)C)c4C)n3)ccc21 [Compound 118, 1-isopropyl-N-(4-(1-(2-methoxyethyl)-2-oxo-1,2,3,4-tetrahydroquinolin-6-yl)thiazol-2-yl)-3,5-dimethyl-1H-pyrazole-4-carboxamide]	–	4.3	4	8	2	9	2	854	18	1.2	> 25	10	23	6	26	969	2
CCc1cc(C(=O)Nc2nc(-c3ccc4c(c3)CCC(=O)N4)cs2)n(C)n1 [Compound 24, 3-ethyl-1-methyl-N-(4-(2-oxo-1,2,3,4-tetrahydroquinolin-6-yl)thiazol-2-yl)-1H-pyrazole-5-carboxamide]	7.6	9.9	> 25	> 25	> 25	> 25	0.672	2760	> 25	> 25	> 25	> 25	–	> 25	> 25	> 25000	13
